From patent US9480727B2, “Synthetic peptide for inhibiting expression of type 2 TNF receptor and use thereof” (TOAGOSEI CO., LTD., priority 2012, dated 2016)

Key:
TNF-R1 [1] = test: TNF-R1 expression (immunofluorescence, flow cytometry) in human SK-N-SH cells; format: cell-based; settings: SK-N-SH cells after retinoic acid induction, 5 μM peptide, two days; fluorescence intensity relative to control = 1 (FIG. 2)
Protocol: The activities of the two peptides synthesized in Example 1 above were tested with cultured cells of a human neuroblastoma cell line (SK-N-SH). The control group was supplied with no peptides. The test details are described below.
The SK-N-SH cell line was seeded in a 4 mL fraction in a culture dish of 6 cm diameter at a density of 1.5×10^5 cells/mL and incubated in a general DMEM culture medium (with 10% FBS, 2 mM L-glutamine, 50 unit/mL penicillin, and 50 μg/mL streptomycin) at 37° C. in a CO2 incubator at 5% CO2 over two nights. […]
(§1) After completion of the incubation, cultured cells in each test group were collected and divided into certain test tubes in fractions having the same number of number of cells. By the immunofluorescence technique described below, the expression (presence) of TNF-R1 and TNF-R2 was then assessed in each test group (group supplied with no peptide, group supplied with Sample 1, group supplied with Sample 2). […]
(§2) The fluorescence intensities of cells were measured with a flow cytometer (a Millipore system product, Guava® easyCyte 8HT). For both TNF-R2 and TNF-R1, the fluorescence intensities are shown as relative values with the fluorescence intensities of TNF-R2 and TNF-R1 in the control group (group supplied with no peptide) being 1, respectively.

TNF-R1 [2] = test: TNF-R1 expression (immunofluorescence, flow cytometry) in mouse Neuro 2a cells; format: cell-based; settings: Neuro 2a cells after retinoic acid induction, 5 μM peptide, two days; fluorescence intensity relative to control = 1 (FIG. 1)
Protocol: The activities of the two peptides synthesized in Example 1 above were tested with cultured cells of a mouse spinal cord, neuroblastoma cell line (Neuro 2a). The control group was supplied with no peptides. The test details are described below.
The Neuro 2a cell line was seeded in a culture dish of 6 cm diameter at a density of 8.5×10^4 cells/mL and incubated overnight in a general DMEM culture medium (with 10% FBS, 1% penicillin) at 37° C. in a CO2 incubator at 5% CO2.
After incubated overnight, the culture medium was replaced with a DMEM culture medium containing 2% FBS, 20 μM retinoic acid and 1% penicillin. […]
as §1, with “same” for “same number of”
as §2

Row | Sequence | presence (expression) of TNF-R1 as compared with the control group (TNF-R1 [1]) | presence (expression) of TNF-R1 as compared with the control group (TNF-R1 [2])
1 | MLPSLALLLLAAWTVRA (listed as Mus musculus) [Sample 2] | no significant change | no significant change
2 | MLPGLALLLLAAWTARA (listed as Homo sapiens) [Sample 1] | no significant change | no significant change
